The source of these data is ChEMBL document CHEMBL1142592, “Additional pyrrolomycins from cultures of Streptomyces fumanus” (2005).

As usually defined, the MIC is the smallest concentration in the dilution series that meets the test's criterion for growth inhibition.

Converted amounts (≈) assume the structure as drawn.

Common to all, as to type: functional
Test [1] concerns Escherichia coli. Description: Antimicrobial activity against wild type Escherichia coli by agar dilution method. (In general: Agar dilution tests growth on a series of plates holding different concentrations.)
The test system of test [2] is Staphylococcus aureus. As to the kind of experiment: Antimicrobial activity against wild type Staphylococcus aureus by agar dilution method.
In the next test the test system is Enterococcus faecium. As to the kind of experiment: Antimicrobial activity against vancomycin-resistant Enterococcus faecium by agar dilution method.
Test [3] concerns Staphylococcus aureus. Description: Antimicrobial activity against methicillin-resistant Staphylococcus aureus by agar dilution method.
Test [4] relates to Escherichia coli. As to the kind of experiment: Antimicrobial activity against permeability mutant Escherichia coli imp by agar dilution method.

As for `O=[N+]([O-])c1c([C@@H](O)c2cc(Cl)cc(Cl)c2O)[nH]c(Cl)c1Cl` [PYRROLOMYCIN G], the MIC is above 128 µg/mL with Escherichia coli [1]; 8 µg/mL (≈ 21.5 µM) in the test with Staphylococcus aureus [2]; 8 µg/mL (≈ 21.5 µM) in the test on Enterococcus faecium; 8 µg/mL (≈ 21.5 µM) against Staphylococcus aureus [3]; 32 µg/mL (≈ 86 µM) against Escherichia coli [4].

Turning to `COc1c(Cl)cc(Cl)cc1[C@H](O)c1[nH]c(Cl)c(Cl)c1[N+](=O)[O-]` [PYRROLOMYCIN H], the MIC was found to be 128 µg/mL (≈ 332 µM) in the test with Escherichia coli [1], 1 µg/mL (≈ 2.59 µM) in the test with Staphylococcus aureus [2], 2 µg/mL (≈ 5.18 µM) in the test on Staphylococcus aureus [3] and 4 µg/mL (≈ 10.4 µM) against Escherichia coli [4].

As for `COc1c(Cl)cc(Cl)cc1C(=O)c1[nH]c(Cl)c(Cl)c1Cl` [PYRROLOMYCIN J], the minimal inhibitory concentration (MIC) was above 128 µg/mL against Escherichia coli [1], 1 µg/mL (≈ 2.68 µM) in the test with Staphylococcus aureus [2], 2 µg/mL (≈ 5.36 µM) in the test on Staphylococcus aureus [3] and 8 µg/mL (≈ 21.4 µM) in the test on Escherichia coli [4].
